Measured values: patent publication US8003312B2, “Multiplex cellular assays using detectable cell barcodes” (The Board of Trustees of the Leland Stanford Junior …, priority 2007, dated 2011)

Legend:
Type in all cases: cell-based, human
[1] = tested on: ERK phosphorylation; experiment: 96-well FCB drug screen in Jurkat cells: T-cell receptor-mediated ERK phosphorylation; conditions: 20 μM, 45 min before stimulation with anti-CD3, anti-CD28 and IFN-γ for 5 min
Protocol: (§1) FIG. 5. Use of FCB in drug screening platforms. […] (a) Layout of screening experiment. Jurkat cells were treated with 70 known small-molecule kinase or phosphatase inhibitors (20 μM), Jak inhibitor I (2 μM) or U0126 (20 μM) for 45 min before stimulation with 5 μg/ml anti-CD3 and anti-CD28 and 10 ng/ml IFN-γ for 5 min. (b) FCB setup for barcoding of 96-well plate. After fixation, cells were barcoded with Alexa 700-NHS (0, 0.06, 0.25 or 1 μg/ml) to delineate the four quadrants of the 96-well plate. Each quadrant was subdivided into four rows labeled with Pacific Blue-NHS (0, 0.04, 0.2 or 1 μg/ml) and six columns labeled with Alexa 488-NHS (0, 0.02, 0.06, 0.18, 0.5 or 1.5 μg/ml). Shown are pseudocolor FACS plots of the actual gating scheme used to deconvolute the samples in quadrant 4, row D (bottom right six samples in the plate). […] Wells with black triangles were excluded from the analysis due to high fluorescence of the drug in the phospho-protein fluorescence channels. Colored squares are drawn over wells analyzed in d. […]
(§2) Because most cell-based high-throughput screens use 96-well microtiter plates, we next addressed the question whether the technique could be adapted to a 96-well plate. […] We also calculated the Z′ factor from these samples, and it was 0.71 for Stat1 and 0.69 for ERK, indicating robust assay performance. […]

[2] = tested on: Stat1 and ERK phosphorylation; experiment: Titration of four screening hits in Jurkat cells using six-sample FCB (pStat1, pERK); conditions: 30 min before IFN-γ (10 ng/ml) and anti-CD3/28 (5 μg/ml each)
Protocol: FIG. 8. Detailed titration of four hits from Jurkat drug screening experiment (FIG. 5). a) Four compounds: Bay11-7082, Indirubin-3-monoxime, PP2, and ZM449829 were added to Jurkat cells at different concentrations for 30 min prior to stimulation with IFN-γ (10 ng/ml) and anti-CD3/28 (5 μg/ml each). The cells were fixed and permeabilized, then stained with pStat1 Ax647 and pERK Ax488 antibodies. Percent inhibition of phosphorylation was plotted against concentration of drugs and fitted with a logistic regression curve to obtain IC50 values. Numbers in the top right of each plot are the IC50 value in μM units. b) Lysates were prepared from the same cells used for phospho flow and analyzed by western blot with pStat1 and pERK antibodies. Drugs were applied at 20 μM (same concentration as initial screen) for western blot analysis.
Because a few of these hits were unexpected, we performed titration experiments using six-sample FCB on four of the compounds to validate the results (FIG. 8).
We calculated fold change of phosphorylation upon stimulation by dividing median fluorescence intensity (MFI) of stimulated samples by the MFI of unstimulated samples: FC=MFIstim/MFIunstim. For heat map analysis, FC was converted to log2 values to enhance visualization and so that samples showing no change have a value of zero. To measure drug activity, we calculated percent inhibition as follows: Percent Inhibition=1−((MFItreated ? MFIunstim)/(MFIstim ? MFIunstim)), where “treated” denotes drug treated (and stimulated) samples, “stim” denotes control stimulated (non drug treated) samples, and “unstim” denotes control unstimulated (non drug treated) samples. We calculated Z′-factor from control stimulated and unstimulated samples by the following: Z′-factor=1 ? ((3[…]SDstim 3[…]SDunstim)/(meanstim ? meanunstim)), where “SD” denotes standard deviation of the mean, and “mean” denotes the mean of either stimulated or unstimulated MFI values. Z′-factor is an indication of the robustness and suitability of an assay for high throughput screening, with values from 0.5 to 1 indicating an excellent assay, 0 to 0.5 indicating a usable assay, and less than 0 indicating the assay has too much noise or inadequate dynamic range.

[3] = tested on: Stat1 phosphorylation; experiment: 96-well FCB drug screen in Jurkat cells: Stat1 phosphorylation induced by IFN-γ; conditions: 20 μM, 45 min before stimulation with anti-CD3, anti-CD28 and IFN-γ for 5 min
Protocol: as §1, §2

Structure (SMILES): Cc1ccc(S(=O)(=O)/C=C/C#N)cc1 [Bay11-7082]
- inhibition of ERK phosphorylation [1]: 50%
- selectivity between ERK and Stat1 phosphorylation [2]: little selectivity
- inhibition of Stat1 phosphorylation [3]: inhibited Stat1 phosphorylation potently
